Legend:
[1] = Stabilization of oseltamivir in mouse blood spotted on Whatman FTA DMPK-C card; type: in vitro ADME; settings: mouse blood spiked 500 ng/mL; for % oseltamivir metabolized: 25 μL spot on Whatman FTA DMPK-C card
Protocol: Oseltamivir is an oral prodrug of oseltamivir carboxylate, a selective inhibitor of viral neuramidase glycoprotein in influenza A. Oseltamivir undergoes fast bioconversion to oseltamivir carboxylate mostly by carboxylesterase 1 (CES 1).
Mouse blood was spiked with oseltamivir, 500 ng/mL. 25 μL, blood was spotted on Whatman FTA DMPK-C card. Spot were left to dry at room temperature, or heat treated using a Stabilizor™ System (Denator A B, Göteborg, Sweden) then left to dry.

[2] = Effect of different drying conditions on oseltamivir metabolism in spotted mouse blood; type: in vitro ADME; settings: mouse blood spiked 2000 ng/mL, 25 μL spot on Whatman FTA DMPK-C card
Protocol: (§1) FIG. 2 is a graph showing the amount of metabolized Oseltamivir in samples following different treatments. Samples A were treated according to standard procedures according to manufacturer's instructions, i.e. dried in open air for 2 hrs. Samples B were dried in closed bags with silica. Samples C were heat stabilized and subsequently dried in open air. Samples D were heat stabilized and subsequently dried in closed bags with silica. Values in FIG. 2 showing % oseltamivir metabolized are mean of three samples
as §1, with “Mouse blood was spiked with oseltamivir, 2000 ng/mL. 25 μL, blood was spotted on Whatman FTA DMPK-C card. Spots were allowed to dry under” for “FIG. 2 is a graph showing the amount of metabolized Oseltamivir in samples following”, “conditions, with our without prior heat stabilization.” for “treatments.”, “samples.” for “samples”

## CCOC(=O)C1=C[C@@H](OC(CC)CC)[C@H](NC(C)=O)[C@@H](N)C1 [oseltamivir]
[1]; treatment: Drying at room temperature only
  % oseltamivir metabolized: 27%
[1]; treatment: Heating (Stabilizor System) then left to dry
  % oseltamivir metabolized: 3%
[1]; sample on paper, heat treated
  metabolism of the prodrug, heat treatment compared to only passive drying: strongly reduced the metabolism
[2]; compared to drying in open air
  amount of metabolized oseltamivir, not heat stabilized, dried in closed bags with silica (Samples B): even higher amount of metabolized oseltamivir
[2]; compared to drying in open air (Samples C)
  amount of metabolized oseltamivir, heat stabilized, dried in closed bags with silica (Samples D): does not affect the amount of metabolized oseltamivir
[2]; mean of three samples
  amount of metabolized oseltamivir, heat stabilized samples (C, D) versus not heat stabilized: significant lower amount of metabolized oseltamivir
